Patent US20170051149A1, “AZOARYLS AS REVERSIBLY MODULATABLE TUBULIN INHIBITORS” (ECOLE NORMALE SUPERIEURE DE LYON, priority 2014, published 2017)

Key:
[1] = thermal reversion halflife of spontaneous cis->trans isomerisation; assay type: physicochemical
[2] = photoisomerisation: photostationary state, calculated φ(λ) and E(λ), reversible cycling; assay type: physicochemical
Method: In a simple analysis of the PSS(λ) and E(λ), it was approximated that ΦEZ and ΦZE (the quantum efficiencies of the photoisomerisations trans->cis and cis->trans, respectively) are equal and independent of wavelength, and also that the kinetics of spontaneous reversion could be ignored (eg. high-intensity light source). A function φ(λ) was then calculated as per: […]
If ΦEZ and ΦZE are equal and independent of wavelength, φ(λ) gives the true PSS(λ). The wavelength independence of ΦEZ and ΦZE may be an acceptable approximation in regions of relatively strong absorption within the visible spectrum. Their equality may also be an acceptable assumption: since if ΦEZ and ΦZE are unequal but only depend weakly on wavelength in regions of relatively strong absorption, then φ(λ) is a transform of the true PSS(λ); this transform preserves the features of PSS(λ) which were most desired for evaluation in this study as long as ΦEZ and ΦZE are not too different (eg less than a factor of ten difference). Indeed, the calculated φ(λ) were later confirmed by in cellulo experiments to give reliable indications of favourable wavelengths for bulk trans->cis and bulk cis->trans photoisomerisation, which is the benchmark for a suitable analysis of the PSS(λ). The advantages of calculating φ(λ) rather than exhaustively measuring the PSS(λ) experimentally are that (a) the throughput is much faster, (b) the true PSS(λ) may be difficult to achieve at weakly-absorbing wavelengths or with fast-relaxing compounds, (c) the true PSS(λ) may be difficult to measure accurately at wavelengths where one isomer strongly dominates the sample even if both are relatively strongly absorbing, and (d) the variation of PSS(λ) with changes in the local biological microenvironment (polarity, pH etc) may anyway be larger than the error incurred by the assumption φ(λ)═PSS(λ).
Also following the assumption that ΦEZ and ΦZE are equal and independent of wavelength, a photoisomerisation efficiency E(λ) was calculated as per:
E(λ)=[εE(λ)+εZ(λ)]/[εE(390)+εZ(390)]
Larger values of E(λ) therefore denote higher efficiency photoisomerisation (less photon flux is required to approach the PSS(λ)). E(λ) was parametrised to the absorption coefficients at 390 nm, since typically that wavelength gave satisfactorily strong absorption and efficient photoisomerisation. It should be noted that E(λ) are not intercomparable between different compounds. This reflects the realistic scenario that the ΦEZ (or the ΦZE) of two arbitrarily chosen compounds may differ by a significant amount, even if the approximation that ΦEZ and ΦZE are equal and independent of wavelength applies independently to each compound.
A(λstrong) was measured over time in the UV-Vis cuvette in non-degassed PBS left open to the atmosphere, […], at 37° C., while the monochromator was used to apply λirrad alternating between two values λ1 and λ2, chosen to induce net trans->cis and net cis->trans isomerisation respectively. Typical results are presented for compound I.1 (FIG. 3). The absorbance of I.1 (18 μM) was measured at λstrong=378 nm, while the irradiating wavelength was held alternately at λ1=388 nm (50 s; bulk trans->cis) then λ2=508 nm (180 s, bulk cis->trans). Higher absorbance corresponds to a greater amount of trans isomer: an absorbance of 0.27 here corresponds to an approximately 5:1 ratio of trans:cis isomer in the sample, and an absorbance of 0.12 here corresponds to an approximately 1:2 ratio of trans:cis isomer in the sample. […] Typically, compounds of the invention could be bulk-photoisomerised hundreds of times over a timescale of hours (50 representative cycles are shown in FIG. 3 for I.1), such that the majority species in a sample was photocontrollably alternated between the trans-isomer and the cis-isomer. […]

| Structure (SMILES) | τ, reversion time ([1]; PBS pH = 6, 20% MeCN) [min] | τ, reversion time ([1]; PBS pH = 7.4, 20% MeCN) [min] | E(388)/E(508) [2] | E(λ) ([2]; 390 nm) | % cis after photoisomerisation from all-trans ([2]; 390 nm light) | E(λ) ([2]; 410 nm) | % cis after photoisomerisation from all-trans ([2]; 450 nm light) | E(λ) ([2]; 475 nm) | E(λ) ([2]; 490 nm) | E(λ) ([2]; 505 nm) | E(λ) ([2]; 525 nm) | φ(490) ([2]; calculated from εE and εZ) | φ(505) ([2]; calculated from εE and εZ) | % cis after subsequent irradiation ([2]; subsequent 505 nm light) | % trans ([2]; irradiation at 554 nm, 33 μM, PBS 20% MeCN, 37° C.) [%] | % cis before photorelaxation ([2]; state before 550 nm irradiation) [%] | % trans after photorelaxation ([2]; very low intensity light of 550 nm) [%] |
| --- | --- | --- | --- | --- | --- | --- | --- | --- | --- | --- | --- | --- | --- | --- | --- | --- | --- |
| COc1ccc(N=Nc2cc(OC)c(OC)c(OC)c2)cc1O [I.1, 2-methoxy-5-((3,4,5-trimethoxyphenyl)diazenyl)phenol] | 8.4 | 6.2 | 0.04 | 1.00 | approx. 90% | 0.59 | approx. 50% | 0.14 | 0.08 | 0.04 | 0.02 | 0.30 | 0.23 | approx. 20% |  |  |  |
| CCN(CC)c1ccc2c(-c3ccccc3C(=O)N3CCN(CCCOc4c(N=Nc5cc(OC)c(OC)c(OC)c5)ccc(OC)c4C)CC3)c3ccc(=[N+](CC)CC)cc-3oc2c1.CCN(CC)c1ccc2c(-c3ccccc3C(=O)N3CCN(CCCOc4c(N=Nc5cc(OC)c(OC)c(OC)c5)ccc(OC)c4C)CC3)c3ccc(=[N+](CC)CC)cc-3oc2c1.O=C[O-].O=C[O-] [I.25, N-(6-(diethylamino)-9-(2-(4-(3-(3-methoxy-2-methyl-6-((3,4,5-trimethoxyphenyl)diazenyl)phenoxy)propyl)piperazine-1-carbonyl)phenyl)-3H-xanthen-3-ylidene)-N-ethylethanaminium bis(formate) salt] |  | 16.2 |  |  |  |  |  |  |  |  |  |  |  |  | 100 | > 70 | > 99 |
